In US8846653B2, “Delta-tocotrienol treatment and prevention of pancreatic cancer” (University of South Florida, priority 2006, dated 2014):

What was measured:
Assay type in all cases: cell-based, human
MiaPaCa-2 cells = assay: MTT assay of MiaPaCa2 cultures, single 50 μM dose; parameters: rel amt (relative value set to the control): unit not given here; conditions: MiaPaCa2, 50 μM; for MTT assay result, av-blank: average minus blank; for MTT assay result, av: average of 7 runs
Procedure, shortened: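 MiaPaCa-2 cells given a single 50 μM dose of test agent (tocotrienols, tocopherols, tocopherol succinate, geranylgeraniol or succinic acid) or vehicle (ethanol-extracted olive oil). Viability read by MTT at 48 or 120 hours after treatment, alongside vehicle-only control culture.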

[1] = system: SW1990 pancreatic cancer cells; assay: MTS assay of SW1990 cultures, single 50 μM dose; conditions: SW1990, 50 μM
Procedure, shortened: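 SW1990 cells were grown in DMEM with 10% FBS at 37 °C, 5% CO2. They were given one 50 μM dose of a tocotrienol, tocopherol, tocopherol succinate, geranylgeraniol or succinic acid, in an olive-oil-extract vehicle. MTS viability was read at 24, 48 or 72 h and compared with vehicle-only cultures.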

BXPC3 cells = assay: MTT assay of BXPC3 cultures, single 50 μM dose; conditions: BXPC3, 50 μM; for MTT assay result, av-blank: average minus blank
Procedure, shortened: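 BXPC3 cells in 10% FBS medium at 37° C, 5% CO2, given a single 50 μM dose of tocotrienols, tocopherols, tocopherol succinate, geranylgeraniol, succinic acid or vehicle, alongside untreated control. Viability read by MTT at 48 or 120 hours.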

O=C(O)CCC(=O)O [SA, succinic acid]
rel amt (relative value set to the control) (MiaPaCa-2 cells; 48 hours): 74 | MTT assay result, av-blank (MiaPaCa-2 cells; 48 hours): 0.228 | MTT assay result, av (MiaPaCa-2 cells; 48 hours): 0.274 | MTT assay result, run 1 (MiaPaCa-2 cells; 48 hours): 0.276 | MTT assay result, run 2 (MiaPaCa-2 cells; 48 hours): 0.269 | MTT assay result, run 3 (MiaPaCa-2 cells; 48 hours): 0.268 | MTT assay result, run 4 (MiaPaCa-2 cells; 48 hours): 0.276 | MTT assay result, run 5 (MiaPaCa-2 cells; 48 hours): 0.3 | MTT assay result, run 6 (MiaPaCa-2 cells; 48 hours): 0.262 | MTT assay result, run 7 (MiaPaCa-2 cells; 48 hours): 0.266 | rel amt (relative value set to the control) (MiaPaCa-2 cells; 120 hours (5 days)): 80 | MTT assay result, av-blank (MiaPaCa-2 cells; 120 hours (5 days)): 1.443 | MTT assay result, av (MiaPaCa-2 cells; 120 hours (5 days)): 1.495 | MTT assay result, run 1 (MiaPaCa-2 cells; 120 hours (5 days)): 1.36 | MTT assay result, run 2 (MiaPaCa-2 cells; 120 hours (5 days)): 1.346 | MTT assay result, run 3 (MiaPaCa-2 cells; 120 hours (5 days)): 1.488 | MTT assay result, run 4 (MiaPaCa-2 cells; 120 hours (5 days)): 1.609 | MTT assay result, run 5 (MiaPaCa-2 cells; 120 hours (5 days)): 1.84 | MTT assay result, run 6 (MiaPaCa-2 cells; 120 hours (5 days)): 1.412 | MTT assay result, run 7 (MiaPaCa-2 cells; 120 hours (5 days)): 1.408 | rel amnt (relative value set to the control) ([1]; 24 hours): 109 | MTS assay result, run 1 ([1]; 24 hours): 0.146 | MTS assay result, run 2 ([1]; 24 hours): 0.154 | MTS assay result, run 3 ([1]; 24 hours): 0.15 | MTS assay result, run 4 ([1]; 24 hours): 0.152 | MTS assay result, run 5 ([1]; 24 hours): 0.172 | MTS assay result, run 6 ([1]; 24 hours): 0.165 | MTS assay result, run 7 ([1]; 24 hours): 0.179 | MTS assay result, run 8 ([1]; 24 hours): 0.165 | MTS assay result, run 9 ([1]; 24 hours): 0.160 | rel amnt (relative value set to the control) ([1]; 48 hours): 105 | MTS assay result, run 1 ([1]; 48 hours): 0.122 | MTS assay result, run 2 ([1]; 48 hours): 0.149 | MTS assay result, run 3 ([1]; 48 hours): 0.17 | MTS assay result, run 4 ([1]; 48 hours): 0.138 | MTS assay result, run 5 ([1]; 48 hours): 0.177 | MTS assay result, run 6 ([1]; 48 hours): 0.159 | MTS assay result, run 7 ([1]; 48 hours): 0.18 | MTS assay result, run 8 ([1]; 48 hours): 0.178 | MTS assay result, run 9 ([1]; 48 hours): 0.159 | rel amnt (relative value set to the control) ([1]; 72 hours): 113 | MTS assay result, run 1 ([1]; 72 hours): 0.596 | MTS assay result, run 2 ([1]; 72 hours): 0.547 | MTS assay result, run 3 ([1]; 72 hours): 0.57 | MTS assay result, run 4 ([1]; 72 hours): 0.515 | MTS assay result, run 5 ([1]; 72 hours): 0.544 | MTS assay result, run 6 ([1]; 72 hours): 0.44 | MTS assay result, run 7 ([1]; 72 hours): 0.4 | MTS assay result, run 8 ([1]; 72 hours): 0.427 | MTS assay result, run 9 ([1]; 72 hours): 0.504 | rel amt (relative value set to the control) (BXPC3 cells; 48 hours): 95 | MTT assay result, av-blank (BXPC3 cells; 48 hours): 0.218 | MTT assay result, av (average) (BXPC3 cells; 48 hours, average of 7 runs): 0.267 | MTT assay result, run 1 (BXPC3 cells; 48 hours): 0.273 | MTT assay result, run 2 (BXPC3 cells; 48 hours): 0.28 | MTT assay result, run 3 (BXPC3 cells; 48 hours): 0.271 | MTT assay result, run 4 (BXPC3 cells; 48 hours): 0.271 | MTT assay result, run 5 (BXPC3 cells; 48 hours): 0.254 | MTT assay result, run 6 (BXPC3 cells; 48 hours): 0.263 | MTT assay result, run 7 (BXPC3 cells; 48 hours): 0.255 | rel amt (relative value set to the control) (BXPC3 cells; 120 hours (5 days)): 74 | MTT assay result, av-blank (BXPC3 cells; 120 hours (5 days)): 0.428 | MTT assay result, av (BXPC3 cells; 120 hours (5 days), average of 7 runs): 0.483 | MTT assay result, run 1 (BXPC3 cells; 120 hours (5 days)): 0.456 | MTT assay result, run 2 (BXPC3 cells; 120 hours (5 days)): 0.471 | MTT assay result, run 3 (BXPC3 cells; 120 hours (5 days)): 0.497 | MTT assay result, run 4 (BXPC3 cells; 120 hours (5 days)): 0.487 | MTT assay result, run 5 (BXPC3 cells; 120 hours (5 days)): 0.493 | MTT assay result, run 6 (BXPC3 cells; 120 hours (5 days)): 0.48 | MTT assay result, run 7 (BXPC3 cells; 120 hours (5 days)): 0.494
